# Measured values from patent US6790848B2, “4-piperazinylindole derivatives with 5-HT6 receptor affinity” (Syntex (U.S.A.) LLC, priority 2001, dated 2004).
# Counter-ions that a name gives are not always drawn.
# Target: T1, recombinant human 5-HT6 receptor (Homo sapiens, UniProt P50406)
# T1 construct: expressed in transfected cells; cell membranes used
# Assay: Radioligand binding studies: competition for [3H]LSD binding in membranes of HEK293 cells
# Settings: [3H]LSD (5 nM), HEK293 cell membranes, 60 min at 37° C., pH 7.4
# Method: The pharmacology of the compounds of this invention was determined by art recognized procedures.
# The binding activity of compounds of this invention in vitro was determined as follows.
# Duplicate determinations of ligand affinity are made by competing for binding of [3H]LSD in cell membranes derived from HEK293 cells stably expressing recombinant human 5-HT6 receptor.
# All determinations are made in assay buffer containing 50 mM Tris-HCl, 10 mM MgSO4, 0.5 mM EDTA, 1 mM ascorbic acid, pH 7.4 at 37° C., in a 250 microliter reaction volume. Assay tubes containing [3H] LSD (5 nM), competing ligand, and membrane are incubated in a shaking water bath for 60 min. at 37° C., filtered onto Packard GF-B plates (pre-soaked with 0.3% PEI) using a Packard 96 well cell harvester and washed 3 times in ice cold 50 mM Tris-HCl. Bound [3H] LSD is determined as radioactive counts per minute using Packard TopCount.
# Displacement of [3H]LSD from the binding sites was quantified by fitting concentration-binding data to a 4-parameter logistic equation: [formula]
# where Hill is the Hill slope, [ligand] is the concentration of competing radioligand and IC50 is the concentration of radioligand producing half-maximal specific binding of radioligand. The specific binding window is the difference between the Bmax and the basal parameters.
# T1 sequence (P50406 whole entry): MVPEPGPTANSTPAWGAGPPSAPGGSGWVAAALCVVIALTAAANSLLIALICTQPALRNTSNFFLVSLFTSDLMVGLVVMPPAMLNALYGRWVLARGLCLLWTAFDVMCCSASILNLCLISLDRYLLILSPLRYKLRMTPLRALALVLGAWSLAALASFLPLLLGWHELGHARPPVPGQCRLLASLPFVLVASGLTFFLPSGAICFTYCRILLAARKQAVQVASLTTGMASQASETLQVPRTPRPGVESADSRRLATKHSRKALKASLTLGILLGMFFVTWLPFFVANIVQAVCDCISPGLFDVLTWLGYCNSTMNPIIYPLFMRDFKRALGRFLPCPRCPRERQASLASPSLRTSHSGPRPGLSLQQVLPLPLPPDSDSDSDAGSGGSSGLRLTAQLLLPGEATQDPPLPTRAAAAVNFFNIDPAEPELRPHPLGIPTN
SMILES,Ki,pKi
"O=S(=O)(c1cc(Cl)cc(Cl)c1)n1ccc2c(N3CCNCC3)cccc21 [1-(3,5-Dichloro-benzenesulfonyl)-4-piperazin-1-yl-1H-indole]",0.372 nM,–
CS(=O)(=O)c1cccc(S(=O)(=O)n2ccc3c(N4CCNCC4)cccc32)c1 [1-(3-methanesulfonyl-benzenesulfonyl)-4-piperazin-1-yl-1Hindole],2.69 nM,–
O=S(=O)(c1cccs1)n1ccc2c(N3CCNCC3)cccc21 [4-piperazin-1-yl-1-(thiophene-2-sulfonyl)-1H-indole],0.447 nM,–
O=S(=O)(c1cccc(F)c1)n1ccc2c(N3CCNCC3)cccc21 [1-(3-fluoro-benzenesulfonyl)-4-piperazin-1-yl-1H-indole],0.155 nM,–
"COc1ccc(OC)c(S(=O)(=O)n2ccc3c(N4CCNCC4)cccc32)c1 [1-(2,5-dimethoxy-benzenesulfonyl)-4-piperazin-1-yl-1H-indole]",0.933 nM,–
O=S(=O)(c1ccccc1)n1cc(Br)c2c(N3CCNCC3)cccc21 [1-benzenesulfonyl-3-bromo-4-piperazin-1-yl-1H-indole],0.123 nM,–
COc1cccc(S(=O)(=O)n2ccc3c(N4CCNCC4)cccc32)c1 [1-(3-methoxy-benzenesulfonyl)-4-piperazin-1-yl-1H-indole],0.372 nM,–
O=S(=O)(c1cccc2ccccc12)n1ccc2c(N3CCNCC3)cccc21 [1-(Naphthalene-1-sulfonyl)-4-piperazin-1-yl-1H-indole],0.158 nM,–
CCS(=O)(=O)c1cccc(S(=O)(=O)n2ccc3c(N4CCNCC4)cccc32)c1 [1-(3-ethanesulfonyl-benzenesulfonyl)-4-piperazin-1-yl-1H-indole],1.55 nM,–
O=S(=O)(NC1CC1)c1cccc(S(=O)(=O)n2ccc3c(N4CCNCC4)cccc32)c1 [N-cyclopropyl-3-(4-piperazin-1-yl-indole-1-sulfonyl)-benzenesulfonamide],1.26 nM,–
O=S(=O)(c1cccc(Cl)c1)n1ccc2c(N3CCNCC3)cccc21 [1-(3-chloro-benzenesulfonyl)-4-piperazin-1-yl-1H-indole],0.11 nM,–
CN1CCN(c2cccc3c2ccn3S(=O)(=O)c2ccc(F)cc2)CC1 [1-(4-fluoro-benzenesulfonyl)-4-(4-methyl-piperazin-1-yl)-1H-indole],0.832 nM,–
"O=S(=O)(c1cc(Cl)ccc1Cl)n1ccc2c(N3CCNCC3)cccc21 [1-(2,5-dichloro-benzenesulfonyl)-4-piperazin-1-yl-1H-indole]",0.151 nM,–
CS(=O)(=O)c1cc(Br)cc(S(=O)(=O)n2ccc3c(N4CCNCC4)cccc32)c1 [1-(3-bromo-5-methanesulfonyl-benzenesulfonyl)-4-piperazin-1-yl-1H-indole],7.59 nM,–
CC(C)(C)c1ccc(S(=O)(=O)n2ccc3c(N4CCNCC4)cccc32)cc1 [1-(4-ter-butyl-benzenesulfonyl)-4-piperazin-1-yl-1H-indole],3.55 nM,–
CN(C)S(=O)(=O)c1cccc(S(=O)(=O)n2ccc3c(N4CCNCC4)cccc32)c1 [NN-dimethyl-3-(4-piperazin-1-yl-indole-1-sulfonyl)-benzenesulfonamide],–,8.69
CC(C)CS(=O)(=O)c1cccc(S(=O)(=O)n2ccc3c(N4CCNCC4)cccc32)c1 [1-[3-(2-methyl-propane-1-sulfonyl)-benzenesulfonyl]-4-piperazin-1-yl-1H-indole],1.91 nM,–
O=S(=O)(c1cccc(C(F)(F)F)c1)n1ccc2c(N3CCNCC3)cccc21 [4-piperazin-1-yl-1-(3-trifluoromethyl-benzenesulfonyl)-1H-indole],0.2 nM,–
CS(=O)(=O)c1ccc(S(=O)(=O)n2ccc3c(N4CCNCC4)cccc32)cc1 [1-(4-methanesulfonyl-benzenesulfonyl)-4-piperazin-1-yl-1H-indole],42.7 nM,–
O=S(=O)(c1cnc(Cl)c(Br)c1)n1ccc2c(N3CCNCC3)cccc21 [1-(5-bromo-6-chloro-pyridine-3-sulfonyl)-4-piperazin-1-yl-1H-indole],5.62 nM,–
O=S(=O)(c1ccc(Cl)cc1)n1ccc2c(N3CCNCC3)cccc21 [1-(4-chloro-benzenesulfonyl)-4-piperazin-1-yl-1H-indole],0.537 nM,–
CCCS(=O)(=O)c1cccc(S(=O)(=O)n2ccc3c(N4CCNCC4)cccc32)c1 [4-piperazin-1-yl-1-[3-(propane-1-sulfonyl)-benzenesulfonyl]-1H-indole],1.55 nM,–
CS(=O)(=O)c1ccccc1S(=O)(=O)n1ccc2c(N3CCNCC3)cccc21 [1-(2-methanesulfonyl-benzenesulfonyl)-4-piperazin-1-yl-1H-indole],16.6 nM,–
COc1ccc(S(=O)(=O)n2ccc3c(N4CCNCC4)cccc32)cc1 [1-(4-Methoxy-benzenesulfonyl)-4-piperazin-1-yl-1H-indole],0.447 nM,–
CS(=O)(=O)c1ccc(F)c(S(=O)(=O)n2ccc3c(N4CCNCC4)cccc32)c1 [1-(2-fluoro-5-methanesulfonyl-benzenesulfonyl)-4-piperazin-1-yl-1H-indole],13.8 nM,–
O=S(=O)(c1ccccc1F)n1ccc2c(N3CCNCC3)cccc21 [1-(2-fluoro-benzenesulfonyl)-4-piperazin-1-yl-1H-indole],0.0525 nM,–
N#Cc1cccc(S(=O)(=O)n2ccc3c(N4CCNCC4)cccc32)c1 [3-(4-piperazin-1-yl-indole-1-sulfonyl)-benzonitrile],1.12 nM,–

# System: not given
# Assay: not given
# Settings: not given
row,SMILES,melting point
1,CS(=O)(=O)c1ccccc1S(=O)(=O)n1ccc2c(N3CCNCC3)cccc21 (as salt: trifluoroacetate) [1-(2-methanesulfonyl-benzenesulfonyl)-4-piperazin-1-yl-1H-indole],171 °C
2,CCS(=O)(=O)c1cccc(S(=O)(=O)n2ccc3c(N4CCNCC4)cccc32)c1 (as salt: hydrochloride) [1-(3-ethanesulfonyl-benzenesulfonyl)-4-piperazin-1-yl-1H-indole],166 to 167 °C
3,O=S(=O)(c1cccc(Br)c1)n1ccc2c(N3CCNCC3)cccc21 (as salt: hydrochloride),158 to 159 °C
4,"COc1ccc(OC)c(S(=O)(=O)n2ccc3c(N4CCNCC4)cccc32)c1 (as salt: trifluoroacetate) [1-(2,5-dimethoxy-benzenesulfonyl)-4-piperazin-1-yl-1H-indole]",245 to 246 °C (dec.)
5,COc1cccc(S(=O)(=O)n2ccc3c(N4CCNCC4)cccc32)c1 (as salt: trifluoroacetate) [1-(3-methoxy-benzenesulfonyl)-4-piperazin-1-yl-1H-indole],221 °C (dec.)
6,CCCS(=O)(=O)c1cccc(S(=O)(=O)n2ccc3c(N4CCNCC4)cccc32)c1 (as salt: trifluoroacetate) [4-piperazin-1-yl-1-[3-(propane-1-sulfonyl)-benzenesulfonyl]-1H-indole],173 to 174 °C
7,O=S(=O)(c1ccc(Cl)cc1)n1ccc2c(N3CCNCC3)cccc21 (as salt: trifluoroacetate) [1-(4-chloro-benzenesulfonyl)-4-piperazin-1-yl-1H-indole],193 to 194 °C
8,CS(=O)(=O)c1ccc(S(=O)(=O)n2ccc3c(N4CCNCC4)cccc32)cc1 (as salt: trifluoroacetate) [1-(4-methanesulfonyl-benzenesulfonyl)-4-piperazin-1-yl-1H-indole],234 to 235 °C (dec.)
9,O=S(=O)(c1ccc(F)cc1)n1ccc2c(N3CCNCC3)cccc21 (as salt: hydrochloride) [1-(4-fluoro-benzenesulfonyl)-4-piperazin-1-yl-1H-indole],203 to 204 °C
10,CC(C)(C)c1ccc(S(=O)(=O)n2ccc3c(N4CCNCC4)cccc32)cc1 (as salt: trifluoroacetate) [1-(4-ter-butyl-benzenesulfonyl)-4-piperazin-1-yl-1H-indole],231 to 232 °C (dec.)
11,CC(C)CS(=O)(=O)c1cccc(S(=O)(=O)n2ccc3c(N4CCNCC4)cccc32)c1 (as salt: trifluoroacetate) [1-[3-(2-methyl-propane-1-sulfonyl)-benzenesulfonyl]-4-piperazin-1-yl-1H-indole],220 to 222 °C
12,N#Cc1cccc(S(=O)(=O)n2ccc3c(N4CCNCC4)cccc32)c1 (as salt: trifluoroacetate) [3-(4-piperazin-1-yl-indole-1-sulfonyl)-benzonitrile],238 °C (dec.)
13,O=S(=O)(c1c(F)cccc1F)n1ccc2c(N3CCNCC3)cccc21 (as salt: trifluoroacetate),223 to 224 °C
14,CN1CCN(c2cccc3c2ccn3S(=O)(=O)c2ccc(F)cc2)CC1 (as salt: hydrochloride) [1-(4-fluoro-benzenesulfonyl)-4-(4-methyl-piperazin-1-yl)-1H-indole],151 to 152 °C
15,O=S(=O)(c1cccc(F)c1)n1ccc2c(N3CCNCC3)cccc21 (as salt: trifluoroacetate) [1-(3-fluoro-benzenesulfonyl)-4-piperazin-1-yl-1H-indole],227 to 228 °C (dec.)
16,"O=S(=O)(c1cc(Cl)ccc1Cl)n1ccc2c(N3CCNCC3)cccc21 (as salt: trifluoroacetate) [1-(2,5-dichloro-benzenesulfonyl)-4-piperazin-1-yl-1H-indole]",237 to 238 °C (dec.)
17,"O=S(=O)(c1cc(Cl)cc(Cl)c1)n1ccc2c(N3CCNCC3)cccc21 (as salt: hydrochloride) [1-(3,5-Dichloro-benzenesulfonyl)-4-piperazin-1-yl-1H-indole]",156 to 157 °C
